Laboratory results taken from publication PMC9348805, “Identification of the NRF2 transcriptional network as a therapeutic target for trigeminal neuropathic pain” (Science Advances, 2022).

Molecular target: T1, TRPA1 (Homo sapiens, UniProt O75762)
T1 construct: full-length myc-tagged TRPA1 cDNA (gift of M. Caterina), transiently expressed in HEK-293 cells; Fura-2 calcium imaging
Experiment: calcium imaging (Fura-2) of HEK-293 cells transiently expressing TRPA1, with vector and mutant controls
Type: cell-based

T1 sequence (O75762 whole entry): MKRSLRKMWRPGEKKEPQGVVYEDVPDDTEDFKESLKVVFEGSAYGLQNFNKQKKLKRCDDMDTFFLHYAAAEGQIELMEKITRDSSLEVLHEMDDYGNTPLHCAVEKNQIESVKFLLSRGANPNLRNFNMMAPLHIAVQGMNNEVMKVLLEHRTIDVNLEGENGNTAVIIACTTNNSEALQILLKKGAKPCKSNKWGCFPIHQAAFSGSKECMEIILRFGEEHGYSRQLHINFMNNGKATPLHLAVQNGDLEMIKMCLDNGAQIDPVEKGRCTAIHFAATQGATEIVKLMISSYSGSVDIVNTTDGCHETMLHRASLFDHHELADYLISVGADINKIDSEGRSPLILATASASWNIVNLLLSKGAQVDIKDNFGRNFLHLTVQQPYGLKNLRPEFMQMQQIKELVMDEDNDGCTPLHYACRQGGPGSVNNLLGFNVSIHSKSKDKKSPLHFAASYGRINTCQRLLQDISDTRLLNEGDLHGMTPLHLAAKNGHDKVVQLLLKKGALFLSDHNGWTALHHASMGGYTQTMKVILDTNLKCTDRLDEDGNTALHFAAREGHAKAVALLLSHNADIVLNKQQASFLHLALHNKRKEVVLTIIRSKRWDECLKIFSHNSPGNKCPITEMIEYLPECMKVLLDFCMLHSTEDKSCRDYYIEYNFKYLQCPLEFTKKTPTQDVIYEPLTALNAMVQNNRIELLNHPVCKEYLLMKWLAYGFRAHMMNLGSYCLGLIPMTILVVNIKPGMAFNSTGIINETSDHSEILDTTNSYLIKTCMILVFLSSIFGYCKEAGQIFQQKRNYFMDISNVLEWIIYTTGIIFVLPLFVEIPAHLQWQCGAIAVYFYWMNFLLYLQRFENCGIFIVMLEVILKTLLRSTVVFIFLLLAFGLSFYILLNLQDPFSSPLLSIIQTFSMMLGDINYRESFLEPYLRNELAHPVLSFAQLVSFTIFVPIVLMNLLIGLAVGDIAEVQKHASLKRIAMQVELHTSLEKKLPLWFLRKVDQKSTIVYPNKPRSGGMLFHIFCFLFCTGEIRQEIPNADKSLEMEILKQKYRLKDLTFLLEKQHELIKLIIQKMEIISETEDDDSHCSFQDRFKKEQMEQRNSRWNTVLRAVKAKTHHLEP

EC50: 48 µM
SMILES: CCCCCC(O)C=CC=O (stereo not shown) [4-HNE]
